The target of the assay is Beta-secretase 1 (Homo sapiens, UniProt P56817). Kind of assay: Inhibition of BACE1.
Chain of Beta-secretase 1 (P56817 whole entry): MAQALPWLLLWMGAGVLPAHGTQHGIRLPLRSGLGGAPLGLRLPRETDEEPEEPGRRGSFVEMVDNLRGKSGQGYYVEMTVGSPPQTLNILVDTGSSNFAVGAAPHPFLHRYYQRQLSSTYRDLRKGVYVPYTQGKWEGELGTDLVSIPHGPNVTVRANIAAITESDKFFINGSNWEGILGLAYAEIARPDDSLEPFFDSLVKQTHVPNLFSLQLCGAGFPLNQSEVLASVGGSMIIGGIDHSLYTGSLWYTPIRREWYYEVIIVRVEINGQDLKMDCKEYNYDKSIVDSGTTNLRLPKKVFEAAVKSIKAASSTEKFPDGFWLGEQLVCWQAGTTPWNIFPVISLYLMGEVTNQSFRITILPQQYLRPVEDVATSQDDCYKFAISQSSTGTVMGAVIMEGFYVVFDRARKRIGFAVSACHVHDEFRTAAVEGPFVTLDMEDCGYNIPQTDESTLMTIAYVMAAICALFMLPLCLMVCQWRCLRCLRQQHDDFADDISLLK

Consider `CC(=O)c1ccccc1-c1cc(C(=O)N[C@H](CO)Cc2ccccc2)cc(C(=O)N[C@H](C)c2ccccc2)c1`, for which the half-maximal inhibitory concentration (IC50) came to 9900 nM.

As to `CC(=O)c1ccccc1-c1cc(C(=O)N[C@@H](Cc2ccccc2)[C@H](O)CN(C)Cc2ccccc2)cc(C(=O)N[C@H](C)c2ccccc2)c1`, the IC50 is more than 10000 nM.

Compound `CC(=O)c1ccccc1-c1cc(C(=O)N[C@@H](Cc2ccccc2)[C@H](O)CNC2CC2)cc(C(=O)N[C@H](C)c2ccccc2)c1` had a half-inhibitory concentration (IC50) of 317 nM.

As for `CC(C)C[C@H](NC(=O)[C@H](CS(C)(=O)=O)NC(=O)[C@@H](NC(=O)OC(C)(C)C)C(C)C)[C@@H](O)C[C@@H](C)C(=O)N[C@H](C(=O)NCc1ccccc1)C(C)C`, the affinity, expressed as Ki, was 8 nM.

As to `CC(=O)c1ccccc1-c1cc(C(=O)N[C@@H](Cc2ccccc2)[C@H](O)CN[C@@H](C)c2ccccc2)cc(C(=O)N[C@H](C)c2ccccc2)c1`, the IC50 came out at 115 nM.

With `C=CCNC[C@@H](O)[C@H](Cc1ccccc1)NC(=O)c1cc(C(=O)N[C@H](C)c2ccccc2)cc(-c2ccccc2C(C)=O)c1`, it took 223 nM to reach half-maximal inhibition (IC50).

As to `CSCC[C@H](NC(=O)[C@@H](NC(=O)OC(C)(C)C)C(C)C)C(=O)N[C@@H](CC(C)C)[C@@H](O)C[C@@H](C)C(=O)N[C@H](C(=O)NCc1ccccc1)C(C)C`, the Ki came out at 5810 nM. This lies in the single-digit micromolar range.

`CC(=O)c1ccccc1-c1cc(C(=O)N[C@@H](Cc2ccccc2)[C@H](O)CN2CCC2)cc(C(=O)N[C@H](C)c2ccccc2)c1` showed a 50% inhibitory concentration (IC50) of more than 10000 nM.

The compound `CC(=O)c1ccccc1-c1cc(C(=O)N[C@@H](Cc2ccccc2)[C@H](O)CNC(C)C)cc(C(=O)N[C@H](C)c2ccccc2)c1` had an IC50 of 674 nM.

For the compound `CC(=O)c1ccccc1-c1cc(C(=O)N[C@@H](Cc2ccccc2)[C@H](O)CNC2CCC2)cc(C(=O)N[C@H](C)c2ccccc2)c1`, the IC50 is 1400 nM.

`CC(=O)c1ccccc1-c1cc(C(=O)N[C@@H](Cc2ccccc2)[C@H](O)CNCc2ccccc2)cc(C(=O)N[C@H](C)c2ccccc2)c1` gave an IC50 of 115 nM.

For the compound `CC(=O)c1ccccc1-c1cc(C(=O)N[C@@H](Cc2ccccc2)[C@H](O)CNc2ccccc2)cc(C(=O)N[C@H](C)c2ccccc2)c1`, the half-maximal inhibitory concentration (IC50) was found to be 110 nM.

Consider H-ELDLAVEF-OH, for which the affinity, expressed as Ki, was 0.3 nM.

Take `CC(=O)c1ccccc1-c1cc(C(=O)N[C@@H](Cc2ccccc2)[C@H](O)CN[C@H](C)c2ccccc2)cc(C(=O)N[C@H](C)c2ccccc2)c1`: the IC50 stood at 348 nM.

On to `CC(=O)c1ccccc1-c1cc(C(=O)N[C@@H](Cc2ccccc2)[C@H](O)CNCC2CC2)cc(C(=O)N[C@H](C)c2ccccc2)c1`, for which the IC50 was 418 nM.

As a reminder, the IC50 is the concentration that inhibits the measured activity by half. What is called Ki is a dissociation constant, usually derived from enzyme kinetics or from competition with a known ligand. A high value points to a looser hold on the target.

The values above are taken from ChEMBL document CHEMBL1140597, “Evaluating scoring functions for docking and designing beta-secretase inhibitors” (Bioorg Med Chem Lett, 2007).
